Legend:
Assay in all cases: relative viability (nuclei count vs DMSO), 5 days (fraction); higher = more cells survive
BEN = system: BEN
Outline: (§1)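 Five library-drug doses in √10 steps were combined with a fixed anchor-drug dose, or a single drug was given alone, by pin tool to lung cancer cell lines in 1536-well plates the day after seeding. Nuclei were stained and counted after 5 days. Relative viability is the nuclei count in treated wells over that in vehicle wells, taken as the median of duplicate plates.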

ChaGo-K-1 = system: ChaGo-K-1
Outline: as §1

HCC-78 = system: HCC-78
Outline: as §1

LC-2-ad = system: LC-2-ad
Outline: as §1

LCLC-97TM1 = system: LCLC-97TM1
Outline: as §1

LK-2 = system: LK-2
Outline: as §1

LU99A = system: LU99A
Outline: as §1

LXF-289 = system: LXF-289
Outline: as §1

NCI-H1355 = system: NCI-H1355
Outline: as §1

NCI-H1651 = system: NCI-H1651
Outline: as §1

NCI-H1666 = system: NCI-H1666
Outline: as §1

NCI-H1944 = system: NCI-H1944
Outline: as §1

NCI-H1975 = system: NCI-H1975
Outline: as §1

NCI-H2087 = system: NCI-H2087
Outline: as §1

NCI-H2342 = system: NCI-H2342
Outline: as §1

NCI-H358 = system: NCI-H358
Outline: as §1

NCI-H596 = system: NCI-H596
Outline: as §1

NCI-H650 = system: NCI-H650
Outline: as §1

NCI-H661 = system: NCI-H661
Outline: as §1

NCI-H838 = system: NCI-H838
Outline: as §1

PC-3 [JPC-3] = system: PC-3 [JPC-3]
Outline: as §1

SK-MES-1 = system: SK-MES-1
Outline: as §1

CC(=O)O[C@@]12CO[C@@H]1C[C@H](O)[C@@]1(C)C(=O)[C@H](O)C3=C(C)[C@@H](OC(=O)[C@H](O)[C@@H](NC(=O)OC(C)(C)C)c4ccccc4)C[C@@](O)([C@@H](OC(=O)c4ccccc4)[C@H]21)C3(C)C [Docetaxel] + O=C(c1cc(Cc2n[nH]c(=O)c3ccccc23)ccc1F)N1CCN(C(=O)C2CC2)CC1 [Olaparib] (partner 8 µM)
relative viability (BEN; first compound 0.0002 µM): 1.11
relative viability (BEN; first compound 0.000632 µM): 1.06
relative viability (BEN; first compound 0.002 µM): 0.514
relative viability (BEN; first compound 0.006325 µM): 0.357
relative viability (BEN; first compound 0.02 µM): 0.275
relative viability (ChaGo-K-1; first compound 0.0002 µM): 0.384
relative viability (ChaGo-K-1; first compound 0.000632 µM): 0.335
relative viability (ChaGo-K-1; first compound 0.002 µM): 0.285
relative viability (ChaGo-K-1; first compound 0.006325 µM): 0.3
relative viability (ChaGo-K-1; first compound 0.02 µM): 0.181
relative viability (HCC-78; first compound 0.0002 µM): 0.859
relative viability (HCC-78; first compound 0.000632 µM): 0.777
relative viability (HCC-78; first compound 0.002 µM): 0.41
relative viability (HCC-78; first compound 0.006325 µM): 0.329
relative viability (HCC-78; first compound 0.02 µM): 0.338
relative viability (LC-2-ad; first compound 0.0002 µM): 0.623
relative viability (LC-2-ad; first compound 0.000632 µM): 0.411
relative viability (LC-2-ad; first compound 0.002 µM): 0.304
relative viability (LC-2-ad; first compound 0.02 µM): 0.191
relative viability (LCLC-97TM1; first compound 0.0002 µM): 0.467
relative viability (LCLC-97TM1; first compound 0.000632 µM): 0.272
relative viability (LCLC-97TM1; first compound 0.002 µM): 0.107
relative viability (LCLC-97TM1; first compound 0.006325 µM): 0.0877
relative viability (LCLC-97TM1; first compound 0.02 µM): 0.0634
relative viability (LK-2; first compound 0.0002 µM): 0.599
relative viability (LK-2; first compound 0.000632 µM): 0.249
relative viability (LK-2; first compound 0.002 µM): 0.156
relative viability (LK-2; first compound 0.006325 µM): 0.118
relative viability (LK-2; first compound 0.02 µM): 0.0792
relative viability (LU99A; first compound 0.0002 µM): 0.259
relative viability (LU99A; first compound 0.000632 µM): 0.201
relative viability (LU99A; first compound 0.002 µM): 0.209
relative viability (LU99A; first compound 0.006325 µM): 0.23
relative viability (LU99A; first compound 0.02 µM): 0.163
relative viability (LXF-289; first compound 0.0002 µM): 1.06
relative viability (LXF-289; first compound 0.000632 µM): 0.393
relative viability (LXF-289; first compound 0.002 µM): 0.195
relative viability (LXF-289; first compound 0.006325 µM): 0.111
relative viability (LXF-289; first compound 0.02 µM): 0.0839
relative viability (NCI-H1355; first compound 0.0002 µM): 0.732
relative viability (NCI-H1355; first compound 0.000632 µM): 0.533
relative viability (NCI-H1355; first compound 0.002 µM): 0.353
relative viability (NCI-H1355; first compound 0.006325 µM): 0.203
relative viability (NCI-H1355; first compound 0.02 µM): 0.164
relative viability (NCI-H1651; first compound 0.0002 µM): 0.188
relative viability (NCI-H1651; first compound 0.000632 µM): 0.206
relative viability (NCI-H1651; first compound 0.002 µM): 0.177
relative viability (NCI-H1651; first compound 0.006325 µM): 0.137
relative viability (NCI-H1666; first compound 0.0002 µM): 0.786
relative viability (NCI-H1666; first compound 0.000632 µM): 0.673
relative viability (NCI-H1666; first compound 0.002 µM): 0.721
relative viability (NCI-H1666; first compound 0.006325 µM): 0.703
relative viability (NCI-H1666; first compound 0.02 µM): 0.573
relative viability (NCI-H1944; first compound 0.0002 µM): 0.439
relative viability (NCI-H1944; first compound 0.000632 µM): 0.396
relative viability (NCI-H1944; first compound 0.002 µM): 0.339
relative viability (NCI-H1944; first compound 0.006325 µM): 0.238
relative viability (NCI-H1944; first compound 0.02 µM): 0.118
relative viability (NCI-H1975; first compound 0.0002 µM): 0.748
relative viability (NCI-H1975; first compound 0.000632 µM): 0.448
relative viability (NCI-H1975; first compound 0.002 µM): 0.239
relative viability (NCI-H1975; first compound 0.006325 µM): 0.187
relative viability (NCI-H1975; first compound 0.02 µM): 0.147
relative viability (NCI-H2087; first compound 0.0002 µM): 0.586
relative viability (NCI-H2087; first compound 0.000632 µM): 0.3
relative viability (NCI-H2087; first compound 0.002 µM): 0.243
relative viability (NCI-H2087; first compound 0.006325 µM): 0.125
relative viability (NCI-H2087; first compound 0.02 µM): 0.0944
relative viability (NCI-H2342; first compound 0.0002 µM): 0.525
relative viability (NCI-H2342; first compound 0.000632 µM): 0.456
relative viability (NCI-H2342; first compound 0.002 µM): 0.312
relative viability (NCI-H2342; first compound 0.006325 µM): 0.348
relative viability (NCI-H2342; first compound 0.02 µM): 0.301
relative viability (NCI-H358; first compound 0.0002 µM): 0.551
relative viability (NCI-H358; first compound 0.000632 µM): 0.251
relative viability (NCI-H358; first compound 0.002 µM): 0.136
relative viability (NCI-H358; first compound 0.006325 µM): 0.147
relative viability (NCI-H358; first compound 0.02 µM): 0.095
relative viability (NCI-H596; first compound 0.0002 µM): 0.685
relative viability (NCI-H596; first compound 0.000632 µM): 0.83
relative viability (NCI-H596; first compound 0.002 µM): 0.638
relative viability (NCI-H596; first compound 0.006325 µM): 0.418
relative viability (NCI-H596; first compound 0.02 µM): 0.338
relative viability (NCI-H650; first compound 0.0002 µM): 0.361
relative viability (NCI-H650; first compound 0.000632 µM): 0.292
relative viability (NCI-H650; first compound 0.002 µM): 0.192
relative viability (NCI-H650; first compound 0.006325 µM): 0.189
relative viability (NCI-H650; first compound 0.02 µM): 0.148
relative viability (NCI-H661; first compound 0.0002 µM): 0.738
relative viability (NCI-H661; first compound 0.000632 µM): 0.701
relative viability (NCI-H661; first compound 0.002 µM): 0.592
relative viability (NCI-H661; first compound 0.006325 µM): 0.434
relative viability (NCI-H661; first compound 0.02 µM): 0.406
relative viability (NCI-H838; first compound 0.0002 µM): 0.716
relative viability (NCI-H838; first compound 0.000632 µM): 0.368
relative viability (NCI-H838; first compound 0.002 µM): 0.268
relative viability (NCI-H838; first compound 0.006325 µM): 0.137
relative viability (NCI-H838; first compound 0.02 µM): 0.106
relative viability (PC-3 [JPC-3]; first compound 0.0002 µM): 1.13
relative viability (PC-3 [JPC-3]; first compound 0.000632 µM): 1.03
relative viability (PC-3 [JPC-3]; first compound 0.002 µM): 0.585
relative viability (PC-3 [JPC-3]; first compound 0.006325 µM): 0.388
relative viability (PC-3 [JPC-3]; first compound 0.02 µM): 0.234
relative viability (SK-MES-1; first compound 0.0002 µM): 0.719
relative viability (SK-MES-1; first compound 0.000632 µM): 0.405
relative viability (SK-MES-1; first compound 0.002 µM): 0.354
relative viability (SK-MES-1; first compound 0.02 µM): 0.145

Reference: the supplement of paper PMC10307832
